Test results: patent publication US10398142B2, “Polycationic amphiphiles as antimicrobial agents” (priority 2013, dated 2019)
Entries after “also recorded” stand apart in the source; their conditions may differ. Like-named read-outs stand apart in the source and are kept apart here.

Legend:
[1] = test system: Staphylococcus aureus MSSA (SH1000); assay: Minimum inhibitory concentration (MIC), broth microdilution; assay type: cell-based
Experimental: (§1) The term “minimum inhibitory concentration (MIC)” means the lowest concentration of an antimicrobial agent that will inhibit the visible growth of a microorganism after overnight incubation. MIC values against bacteria, for example, the Gram-positive Staphylococcus aureus and Enterococcus faecalis and the Gram-negative Escherichia coli and Pseudomonas aeruginosa were determined by standard methods.
(§2) With nearly three-dozen amphiphiles varying in structure and cationic nature synthesized, minimum inhibitory concentration (MIC) values against the Gram-positive Staphylococcus aureus and Enterococcus faecalis and the Gram-negative Escherichia coli and Pseudomonas aeruginosa were determined by standard methods. […] The commercially available antibacterial agent benzalkonium chloride (benzyldimethyldodecylammonium chloride, Bn,12) was tested for comparison. The broth microdilution for determining MIC values was performed as previously reported.
(§3) Different biological assays were performed. […] All cultures, with the exception of E. faecalis, were grown with shaking at 250 rpm.
(§4) Minimum inhibitory concentration (MIC) values against bacteria were measured using standard method. Compounds were serially diluted two-fold from an aqueous stock solution to yield twelve test concentrations. Overnight S. aureus, E. faecalis, E. coli, P. aeruginosa, CA-MRSA, and HA-MRSA cultures diluted to ca. 10^6 cfu/mL in Mueller-Hinton media and 100 μL were inoculated into each well of a U-bottom 96-well plate (BD Biosciences, BD351177) containing 100 μL of compound solution. Plates were incubated statically at 37° C. for 72 hours upon which time wells were evaluated visually for bacterial growth. The MIC was determined as the lowest concentration of compound resulting in no bacterial growth visible to the naked eye, based on the majority of three independent experiments. Positive and negative aqueous and media controls were conducted for each trial.

CA-MRSA (USA300-0114) = assay: as above; assay type: cell-based, Staphylococcus aureus; settings: for MIC: read-out: MIC CA-MRSA; for potency against CA-MRSA strain possessing qacA/R (in words): compared with MSSA
Experimental: as §3, §4

HA-MRSA (ATCC 33591) = assay: as above; assay type: cell-based, Staphylococcus aureus; settings: for MIC: read-out: MIC HA-MRSA
Experimental: as §3, §4

[2] = test system: S. aureus (MSSA, SH1000) biofilms; assay: Minimum biofilm eradication concentration (MBEC), regrowth assay; assay type: cell-based, Staphylococcus aureus; settings: for MBEC MSSA: Table 5, SH1000
Text: (§5) A regrowth assay was used to establish the MBEC of a compound to evaluate the antibiofilm activity. See also H. Ceri, M. Olson, D. Morck, D. Storey, R. Read, A. Buret, B. Olson, Methods Enzymol. 2001, 337, 377.
(§6) Encouraged by the potency of the QACs against planktonic bacterial cells, the inventors then evaluated the efficacy of compound (12,2,12) against Staphylococcus aureus and Enterococcus faecalis biofilms. […] To both accurately evaluate the antibiofilm activity, a regrowth assay was utilized to establish the minimum biofilm eradication concentration (MBEC) of each compound.
(§7) Different biological assays were performed. For all biological assays, laboratory strains of methicillin-susceptible Staphylococcus aureus MSSA (SH1000), Enterococcus faecalis (OG1RF), Escherichia coli (MC4100), Pseudomonas aeruginosa (PAO1), community-acquired methicillin-resistant Staphylococcus aureus CA-MRSA (USA300-0114), and hospital-acquired methicillin-resistant Staphylococcus aureus HA-MRSA (ATCC 33591) were grown at 37° C. overnight from freezer stocks in 10 mL of the media indicated for each assay. All cultures, with the exception of E. faecalis, were grown with shaking at 250 rpm.
(§8) Minimum biofilm eradication concentration (MBEC) was also measured. To each well of a flat-bottomed 96-well plate (Corning 3370), 8 μL of overnight bacterial culture was brought to a volume of 200 μL with fresh media (BHI for S. aureus and MRSA, Todd Hewitt (TH) for E. faecalis). Plates were incubated statically for 24 hours at 37° C. to establish biofilms. After 24 hours, the wells were carefully emptied by inverting the plate and gently shaking. A pre-mixed solution of media and aqueous compound stock solution was added to each well and plates were incubated at 37° C. 16 hours after pre-established biofilms were treated with compound, the media from each well was removed, biofilms were washed three times with 200 μL PBS to remove planktonic cells, and biofilms were incubated overnight at 37° C. in 200 μL of fresh media to allow any viable cells to continue growing. The wells were then vigorously pipetted to resuspend the biofilm cells and the OD at 595 nm was measured using a plate reader (POLARstar Omega, BMG Labtech). Biofilms reaching a final OD of less than 0.1 were considered eradicated and the lowest concentration of antibiotic corresponded to the MBEC. Four replicates were completed for each concentration of compound as well as positive and negative controls.

E. faecalis biofilms = assay: as above; assay type: cell-based, Enterococcus faecalis
Text: as §5, §6, §7, §8

[3] = test system: CA-MRSA (USA300-0114) biofilms; assay: as above; assay type: cell-based, Staphylococcus aureus; settings: Table 5; for MBEC CA-MRSA: USA300-0114
Experimental: as §5, §7, §8

[4] = test system: red blood cells (defibrinated sheep blood); assay: Hemolysis assay (Lysis20); settings: for Lysis20: Table 4, concentration at which less than 20% of red blood cells are lysed
Experimental: Hemolysis assays (Lysis20) were performed according to the procedure detailed in Peng, L., DeSousa, J., Su, Z., Novak, B. M., Nevzorov, A. A., Garland, E. R., and Melander, C., Inhibition of Acinetobacter baumannii biofilm formation on a methacrylate polymer containing a 2-aminoimidazole subunit, Chem. Comm. 2011, 47, 4896-4898. Defibrinated sheep blood was purchased from Hemostat Labs (DSB 100). Compounds representative of each class were serially diluted in sterile PBS from aqueous stock solutions and incubated with resuspended blood cells. The OD of the final suspensions were measured directly using plate reader. TritonX (1% by volume) served as a positive control (100% lysis marker) and sterile PBS served as a negative control (0% lysis marker).
Lysis20 indicates the concentration of compound (in μM) at which less than 20% of red blood cells are lysed.

[5] = test system: Enterococcus faecalis (OG1RF); assay: Minimum inhibitory concentration (MIC), broth microdilution; assay type: cell-based; settings: Enterococcus faecalis, read-out: MIC E. faecalis
Experimental: as §1, §2, §3, §4

[6] = test system: Escherichia coli (MC4100); assay: as above; assay type: cell-based; settings: Escherichia coli, read-out: MIC E. coli
Experimental: as §1, §2, §3, §4

[7] = test system: Pseudomonas aeruginosa (PAO1); assay: as above; assay type: cell-based; settings: Pseudomonas aeruginosa, PAO1, read-out: MIC P. aeruginosa
Experimental: as §1, §2, §3, §4

[8] = Staphylococcus aureus, MSSA, Table 4, SH1000, read-out: MIC MSSA
[9] = Staphylococcus aureus, Table 4, USA300-0114
[10] = Staphylococcus aureus, Table 4, ATCC 33591
[11] = Table 4, SH1000, read-out: MIC MSSA
[12] = Table 2, pre-established biofilm, ± values varied between 50 and 100 μM for the six trials

Row | SMILES | MBEC MSSA [2] | MBEC E. faecalis (E. faecalis biofilms; Table 5) | MBEC CA-MRSA [3] | Lysis20 [4] | MIC [1, 11] | MIC (CA-MRSA (USA300-0114); Table 4, USA300-0114) | MIC (HA-MRSA (ATCC 33591); Table 4, ATCC 33591) | further results
1 | CCCCCCCCCC[N+](C)(C)CCCN(C)CCC[N+](C)(C)CCCCCCCCCC [10,3,0,3,10] | 150 ± 50 µM | 50 µM | 150 ± 50 µM | 32 µM | – | – | – | MIC [1, 8]: 1 µM; MIC (CA-MRSA (USA300-0114); [9]): 2 µM; MIC (HA-MRSA (ATCC 33591); [10]): 2 µM; prokaryotic selectivity (lytic profile vs MIC, in words) ([4]; among the multiQACs evaluated): highest prokaryotic selectivity
2 | CCCCCCCCCC[N+](C)(C)CCC[N+](C)(CC)CCC[N+](C)(C)CCCCCCCCCC [10,3,2,3,10] | 200 µM | 100 µM | 150 ± 50 µM | 32 µM | – | – | – | MIC [1, 8]: 2 µM; MIC (CA-MRSA (USA300-0114); [9]): 2 µM; MIC (HA-MRSA (ATCC 33591); [10]): 2 µM; prokaryotic selectivity (lytic profile vs MIC, in words) ([4]; among the multiQACs evaluated): highest prokaryotic selectivity
3 | CCCCCCCCCC[N+](C)(C)CCCCCCCCCC.[Cl-] [10,10, reference compound] | 150 ± 50 µM | >200 µM | ≥200 µM | 16 µM | 1 µM | 4 µM | 2 µM | –
4 | CCCCCCCCCCCC[N+](C)(C)CCCN(C)C.[Br-] [12,3,0] | >200 µM | >200 µM | >200 µM | 32 µM | 4 µM | 8 µM | 4 µM | –
5 | CCCCCCCCCCCCCCCC[N+](C)(C)CCN(C)C.[Br-] [16,2,0] | 100 µM | 50 µM | >200 µM | 16 µM | 1 µM | 4 µM | 2 µM | –
6 | CCCCCCCCCCCC[n+]1cccc(-c2ccc[n+](CCCCCCCCCCCC)c2)c1.[Br-].[Br-] [MQ-12,12] | 100 µM | 100 µM | 100 µM | 8 µM | 1 µM | 2 µM | 1 µM | –
7 | CCCCCCCCCCCC[n+]1cccc(-c2ccc[n+](Cc3ccccc3)c2)c1.[Br-].[Br-] [MQ-12,Bn] | >200 µM | >200 µM | >200 µM | 125 µM | 8 µM | 16 µM | 16 µM | prokaryotic selectivity (lytic profile vs MIC, in words) [4]: highest prokaryotic selectivity
8 | CCCCCCCCCCCC[n+]1ccc(-c2ccc[n+](CCCCCCCCCCCC)c2)cc1.[Br-].[Br-] [PMQ-12,12] | 100 µM | 100 µM | 150 ± 50 µM | 8 µM | 1 µM | 1 µM | 1 µM | –
9 | CCCCCCCCCCC[n+]1ccc(-c2cc[n+](CCCCCCCCCCC)cc2)cc1 [PQ-11,11] | – | – | – | – | – | – | – | MIC [5]: 1 µM; MIC [6]: 1 µM; MIC [7]: 4 µM; MIC ([1]; Staphylococcus aureus, MSSA, read-out: MIC S. aureus): 1 µM; MBEC S. aureus [2, 12]: 50 µM; MBEC E. faecalis (E. faecalis biofilms; [12]): 50 µM
10 | CCCCCCCCCCCC[n+]1ccc(-c2cc[n+](CCCCCCCCCCCC)cc2)cc1.[Br-].[Br-] [PQ-12,12] | 200 µM | 200 µM | 100 µM | 8 µM | 1 µM | 1 µM | 0.5 µM | –
11 | CCCCCCCCCCCC[n+]1ccc(-c2cc[n+](Cc3ccccc3)cc2)cc1 [PQ-12,Bn] | 200 µM | 200 µM | 200 µM | 125 µM | – | – | – | MIC ([1]; Staphylococcus aureus, MSSA, read-out: MIC MSSA): 4 µM; MIC (CA-MRSA (USA300-0114); Staphylococcus aureus): 32 µM; potency against CA-MRSA strain possessing qacA/R (in words) (CA-MRSA (USA300-0114)): elevated MICs; also recorded: decreased potency; MIC (HA-MRSA (ATCC 33591); Staphylococcus aureus): 16 µM; potency against HA-MRSA (in words) (HA-MRSA (ATCC 33591); compared with MSSA): elevated MICs; prokaryotic selectivity (lytic profile vs MIC, in words) ([4]; among the multiQACs evaluated): highest prokaryotic selectivity
12 | CCCCCCCCCCCCCCCC[n+]1ccccc1.[Cl-] [Pyr,16, reference compound] | 50 µM | 50 µM | 200 µM | 8 µM | 0.5 µM | 16 µM | 1 µM | potency against CA-MRSA strain possessing qacA/R (in words) (CA-MRSA (USA300-0114)): decreased potency; decrease in efficacy against MRSA biofilms compared to MSSA ([3]; MBEC): four-fold decrease in efficacy
